In ChEMBL document CHEMBL3627682, “Exploration of the structure-activity relationship of 1,2,4-oxadiazole antibiotics” (2015):
Converted amounts (≈) assume the structure as drawn.

What was measured:
Format in all cases: functional
[1] = tested on: Staphylococcus aureus; assay: Antibacterial activity against Staphylococcus aureus ATCC 29213
[2] = tested on: Staphylococcus aureus; assay: Antibacterial activity against vancomycin-resistant Staphylococcus aureus VRS1
[3] = tested on: Enterococcus faecalis; assay: Antibacterial activity against Enterococcus faecalis ATCC 29212
[4] = tested on: Staphylococcus epidermidis; assay: Antibacterial activity against Staphylococcus epidermidis ATCC 35547
[5] = tested on: Staphylococcus aureus; assay: Antibacterial activity against vancomycin-resistant Staphylococcus aureus VRS2
[6] = tested on: Enterococcus faecium; assay: Antibacterial activity against vancomycin-resistant Enterococcus faecium 106
[7] = tested on: Staphylococcus haemolyticus; assay: Antibacterial activity against Staphylococcus haemolyticus ATCC 29970
[8] = tested on: Enterococcus faecalis; assay: Antibacterial activity against Enterococcus faecalis 201
[9] = tested on: Enterococcus faecalis; assay: Antibacterial activity against vancomycin-resistant Enterococcus faecalis 99

Row | Compound | MIC [1] [µg/mL] | other results
1 | COc1ccc(-c2noc(-c3ccc(O)cc3)n2)cc1OC | ≥ 500 | 
2 | Cn1c2ccccc2c2cc(-c3noc(-c4ccc(O)cc4)n3)ccc21 | ≥ 128 | 
3 | Oc1ccc(-c2nc(-c3ccc4[nH]c5ccccc5c4c3)no2)cc1 | ≥ 128 | 
4 | Oc1ccc(-c2nc(N3CCN(c4ccccc4)CC3)no2)cc1 | ≥ 128 | 
5 | Oc1ccc(-c2nc(N3CCN(c4cccc(Cl)c4)CC3)no2)cc1 | ≥ 128 | 
6 | Clc1c[nH]nc1-c1nc(N2CCN(c3ccccc3)CC2)no1 | ≥ 128 | 
7 | Clc1cc(Cl)cc(N2CCN(c3noc(-c4n[nH]cc4Cl)n3)CC2)c1 | ≥ 128 | 
8 | Clc1cccc(N2CCN(c3noc(-c4ccc5[nH]ccc5c4)n3)CC2)c1 | ≥ 128 | 
9 | Clc1cc(Cl)cc(N2CCN(c3noc(-c4ccc5[nH]ccc5c4)n3)CC2)c1 | ≥ 128 | 
10 | Cl.Nc1ccc(-c2noc(-c3ccc(O)cc3)n2)cc1 | ≥ 256 | 
11 | CC(=O)Nc1ccc(-c2noc(-c3ccc(O)cc3)n2)cc1 | ≥ 500 | 
12 | O=C(Nc1ccc(-c2noc(-c3ccc(O)cc3)n2)cc1)c1ccccc1 | ≥ 500 | 
13 | CN1CCN(c2ccc(-c3noc(-c4ccc(O)cc4)n3)cc2)CC1 | ≥ 128 | 
14 | Oc1ccc(-c2nc(-c3ccc(N4CCOCC4)cc3)no2)cc1 | ≥ 128 | 
15 | CC(C)(C)OC(=O)N1CCN(c2ccc(-c3noc(-c4n[nH]cc4Cl)n3)cc2)CC1 | ≥ 128 | 
16 | Clc1c[nH]nc1-c1nc(-c2ccc(N3CCNCC3)cc2)no1 | ≥ 128 | 
17 | CN[C@H](CC(C)C)C(=O)N[C@H]1C(=O)N[C@@H](CC(N)=O)C(=O)N[C@H]2C(=O)N[C@H]3C(=O)N[C@H](C(=O)N[C@H](C(=O)O)c4cc(O)cc(O)c4-c4cc3ccc4O)[C@H](O)c3ccc(c(Cl)c3)Oc3cc2cc(c3O[C@@H]2O[C@H](CO)[C@@H](O)[C@H](O)[C@H]2O[C@H]2C[C@](C)(N)[C@H](O)[C@H](C)O2)Oc2ccc(cc2Cl)[C@H]1O [VANCOMYCIN] |  | MIC [2]: 512 µg/mL (≈ 353 µM); MIC [3]: 2 µg/mL (≈ 1.38 µM); MIC [4]: 16 µg/mL (≈ 11 µM); MIC [5]: 64 µg/mL (≈ 44.2 µM); MIC [6]: 256 µg/mL (≈ 177 µM); MIC [7]: 2 µg/mL (≈ 1.38 µM); MIC [8]: 1 µg/mL (≈ 0.69 µM); MIC [9]: 128 µg/mL (≈ 88.3 µM)

More lines, main results first:

Row | MIC [1] [µg/mL] | Compound | other results
18 | ≥ 128 | c1cc2cc(-c3nc(-c4ccc5c(c4)OCO5)no3)ccc2[nH]1 | 
19 | ≥ 128 | c1cc2cc(-c3nc(-c4ccc5c(c4)OCC5)no3)ccc2[nH]1 | 
20 | ≥ 128 | Oc1ccc(-c2nc(-c3ccc4c(c3)C=CCO4)no2)cc1 | 
21 | 32 (≈ 80.5 µM) | Oc1ccc(-c2nc(-c3ccc(Nc4ccc(C(F)(F)F)cc4)cc3)no2)cc1 | 
22 | ≥ 128 | Oc1ccc(-c2nc(-c3ccc(Nc4ccc(F)cc4)cc3)no2)cc1 | 
23 | ≥ 128 | Oc1ccc(-c2nc(-c3ccc(Cc4ccccc4)cc3)no2)cc1 | 
24 | ≥ 128 | O=C(c1ccccc1)c1ccc(-c2noc(-c3ccc(O)cc3)n2)cc1 | 
25 | ≥ 128 | Oc1ccc(-c2nc(-c3ccc(N(Cc4ccccc4)c4ccccc4)cc3)no2)cc1 | 
26 | ≥ 128 | [O-][S+](c1ccccc1)c1ccc(-c2noc(-c3ccc(O)cc3)n2)cc1 (stereo unspecified) | 
27 | ≥ 128 | O=S(=O)(c1ccccc1)c1ccc(-c2noc(-c3ccc(O)cc3)n2)cc1 | 
28 | 16 (≈ 43.8 µM) | Clc1cccc(N2CCN(c3noc(-c4n[nH]cc4Cl)n3)CC2)c1 | 
29 | 32 (≈ 99.3 µM) | Oc1ccc(-c2nc(-c3ccc(N4CCNCC4)cc3)no2)cc1 | 
